Measurements as given in the supplement of paper PMC10307832.

Key:
Assay in all cases: relative viability (nuclei count vs DMSO), 5 days (fraction); higher = more cells survive
[1] = compound: C(C(=O)C(=O)O)Br [Bromopyruvate] + CC(=O)c1c(C)c2cnc(Nc3ccc(N4CCNCC4)cn3)nc2n(C2CCCC2)c1=O [Palbociclib] (partner 0.5 µM)
Procedure, shortened: (§1)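 Each reported value is a median over duplicate plates. It expresses relative viability: treated-well nuclei count divided by vehicle-well nuclei count. Lung cancer cell lines in 1536-well plates were dosed by pin tool a day after seeding, alone with one drug or with a fixed anchor-drug dose plus five library-drug doses (not always all listed) in √10 steps, and nuclei were counted after 5 days.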

[2] = compound: CC(O)(CS(=O)(=O)c1ccc(F)cc1)C(=O)Nc1ccc(C#N)c(C(F)(F)F)c1 [Bicalutamide] + O=C(CCCCCCC(=O)Nc1ccccc1)NO [Vorinostat] (partner 1 µM)
Procedure, shortened: as §1

[3] = compound: C(C(=O)C(=O)O)Br [Bromopyruvate] + C[C@@H](Oc1cc(-c2cnn(C3CCNCC3)c2)cnc1N)c1c(Cl)ccc(F)c1Cl [Crizotinib] (partner 1 µM)
Procedure, shortened: as §1

[4] = compound: CC(O)(CS(=O)(=O)c1ccc(F)cc1)C(=O)Nc1ccc(C#N)c(C(F)(F)F)c1 [Bicalutamide] + CC(C)C[C@H](NC(=O)[C@H](Cc1ccccc1)NC(=O)c1cnccn1)B(O)O [Bortezomib] (partner 0.002 µM)
Procedure, shortened: as §1

Row | Cell Line | relative viability ([1]; first compound 1 µM) | relative viability ([1]; first compound 3.162 µM) | relative viability ([1]; first compound 10 µM) | relative viability ([1]; first compound 31.62 µM) | relative viability ([1]; first compound 100 µM) | relative viability ([2]; first compound 0.08 µM) | relative viability ([2]; first compound 0.253 µM) | relative viability ([2]; first compound 0.8 µM) | relative viability ([2]; first compound 2.53 µM) | relative viability ([3]; first compound 1 µM) | relative viability ([3]; first compound 3.162 µM) | relative viability ([3]; first compound 10 µM) | relative viability ([3]; first compound 31.62 µM) | relative viability ([3]; first compound 100 µM) | relative viability ([4]; first compound 0.08 µM) | relative viability ([4]; first compound 0.253 µM) | relative viability ([4]; first compound 0.8 µM) | relative viability ([4]; first compound 2.53 µM)
1 | NCI-H838 | 0.19 | 0.251 | 0.229 | 0.237 | 0.242 | 0.72 | 0.707 | 0.749 | 0.564 | 0.959 | 0.881 | 0.825 | 0.871 | 0.854 | 0.715 | 0.626 | 1.28 | 0.624
2 | NCI-H1355 | 0.388 | 0.401 | 0.356 | 0.373 | 0.407 | 0.679 | 0.596 | 0.691 | 0.609 | 1.05 | 1.06 | 1.18 | 1.06 | 0.983 | 1.21 | 1.07 | 1.43 | 1.1
3 | NCI-H1437 | 0.342 | 0.285 | 0.323 | 0.314 | 0.305 | 0.839 | 0.832 | 0.875 | 0.859 | 0.923 | 0.981 | 0.914 | 0.938 | 0.92 | 0.493 | 0.372 | 0.759 | 0.455
4 | NCI-H1650 | 0.328 | 0.328 | 0.309 | 0.368 | 0.345 | 0.685 | 0.586 | 0.581 | 0.611 | 0.898 | 1.24 | 0.942 | 0.922 | 0.56 | 0.172 | 0.204 | 0.192 | 0.175
5 | NCI-H1651 | 0.479 | 0.477 | 0.542 | 0.519 | 0.492 | 0.577 | 0.514 | 0.662 | 0.567 | 0.876 | 0.83 | 0.919 | 0.847 | 0.796 | 0.917 | 0.864 | 1.04 | 0.959
6 | NCI-H1666 | 0.618 | 0.632 | 0.64 | 0.622 | 0.599 | 0.921 | 1.05 | 1.14 | 0.981 | 0.993 | 0.907 | 0.963 | 1.18 | 0.857 | 0.808 | 0.802 | 1 | 0.949
7 | NCI-H1734 | 0.349 | 0.378 | 0.39 | 0.34 | 0.295 | 0.85 | 0.701 | 1.05 | 0.673 | 0.67 | 0.68 | 0.803 | 0.67 | 0.659 | 1.01 | 0.843 | 1.12 | 0.915
8 | NCI-H1755 | 0.477 | 0.43 | 0.45 | 0.431 | 0.456 | 0.727 | 0.748 | 0.916 | 0.635 | 0.973 | 0.797 | 0.884 | 0.881 | 1 | 0.97 | 0.892 | 0.938 | 0.895
9 | NCI-H1915 | 0.524 | 0.532 | 0.538 | 0.514 | 0.56 | 0.536 | 0.456 | 0.584 | 0.522 | 0.836 | 0.862 | 0.885 | 0.923 | 0.878 | 0.962 | 0.944 | 1.11 | 0.909
10 | NCI-H1975 | 0.66 | 0.619 | 0.566 | 0.551 | 0.569 | 0.73 | 0.742 | 0.703 | 0.557 | 0.95 | 0.955 | 1 | 0.981 | 0.955 | 0.314 | 0.296 | 0.417 | 0.372
11 | NCI-H1993 | 0.536 | 0.661 | 0.813 | 0.629 | 0.775 | 0.864 | 0.675 | 0.787 | 0.705 | 1.25 | 0.931 | 0.899 | 0.84 | 0.867 |  | 0.897 | 1.31 | 1.12
12 | NCI-H2009 | 0.208 | 0.214 | 0.227 | 0.179 | 0.0903 | 0.732 | 0.719 | 0.898 | 0.71 | 1.05 | 1.1 | 1.03 | 0.921 | 0.724 | 1.26 | 1.03 | 1.16 | 0.88
13 | NCI-H2023 | 0.406 | 0.382 | 0.4 | 0.411 | 0.385 | 0.69 | 0.608 | 0.893 | 0.349 | 0.685 | 0.658 | 0.618 | 0.785 | 0.542 | 1.09 | 0.932 | 1.11 | 0.8
14 | NCI-H2085 | 0.491 | 0.469 | 0.489 | 0.539 | 0.521 | 0.829 | 0.741 | 0.816 | 0.687 | 0.823 | 0.984 | 0.874 | 0.778 | 0.797 | 1.14 | 0.944 | 1.08 | 0.996
15 | NCI-H2087 | 0.222 | 0.232 | 0.19 | 0.221 | 0.227 | 0.668 | 0.643 | 0.812 | 0.856 | 0.9 | 0.957 | 0.661 | 0.78 | 0.78 | 0.785 | 0.825 | 1.04 | 0.75
16 | NCI-H2126 | 0.34 | 0.335 | 0.306 | 0.375 | 0.343 | 0.716 | 0.712 | 0.931 | 0.75 | 1.02 | 1.07 | 1.04 | 0.99 | 0.988 | 1.12 | 1.09 | 1.08 | 1.06
17 | NCI-H2228 | 0.791 | 0.9 | 0.665 | 0.85 | 0.775 | 0.584 | 0.795 | 0.993 | 0.581 | 0.44 | 0.641 | 0.492 | 0.404 | 0.617 | 1.07 | 1.11 | 1.31 | 1.11
18 | NCI-H2347 | 0.44 | 0.493 | 0.399 | 0.405 | 0.448 | 0.574 | 0.587 | 0.709 | 0.581 | 0.753 | 0.602 | 0.951 | 0.595 | 0.684 | 1.21 | 0.989 | 1.4 | 0.903
19 | NCI-H2405 | 0.51 | 0.53 | 0.549 |  | 0.458 | 1.09 | 0.985 | 1.49 | 0.975 | 0.79 | 0.841 | 1.04 | 0.696 | 0.907 | 1.02 | 1.01 | 1.05 | 0.986
20 | NCI-H3122 | 0.167 | 0.202 | 0.197 | 0.178 | 0.13 | 1.01 | 0.946 | 1.07 | 0.887 | 0.252 | 0.263 | 0.304 | 0.289 | 0.248 | 1.03 | 1.03 | 0.988 | 1.03
21 | PC-3 [JPC-3] | 0.548 |  | 0.537 |  | 0.536 | 0.809 | 0.887 | 1.14 | 0.808 | 1.03 | 1 | 0.944 | 1.01 | 0.983 | 0.808 | 0.909 | 0.908 | 0.818
22 | PC-14 | 0.577 | 0.538 | 0.686 | 0.573 | 0.411 | 0.854 | 0.605 | 0.732 | 0.574 | 0.991 | 0.868 | 0.826 | 0.966 | 0.997 | 0.923 | 0.974 | 0.827 | 0.89
23 | RERF-LC-KJ | 1.04 | 1.18 | 1.19 | 1.14 | 0.966 | 0.779 | 0.606 | 0.864 | 0.564 | 0.771 | 0.82 | 0.855 | 0.813 | 0.891 | 1.24 | 0.951 | 1.23 | 1.07
24 | SK-LU-1 | 0.372 | 0.363 | 0.365 | 0.346 | 0.428 | 0.871 | 0.856 | 0.82 | 0.699 | 1.05 | 0.99 | 0.831 | 0.856 | 0.794 | 1.33 | 1.37 | 1.89 | 1.09
25 | SW 1573 | 0.401 | 0.395 | 0.373 | 0.266 | 0.0467 | 1.26 | 0.586 | 1.12 | 0.652 | 1.02 | 0.815 | 0.76 | 0.803 | 0.57 | 1.05 | 0.842 | 1.25 | 0.912
